Measurements from patent publication US20250009815A1, “COMPOSITION FOR COMPETITIVE INHIBITION OF PATHOGENS AND RESTORATION OF MICROBIAL ECOLOGICAL BALANCE” (priority 2019, published 2025).
Read-outs that look alike come from different tables or passages of the source.

How the values were obtained:
Assay type in all cases: cell-based
[1] = test system: VP01 (suspected fungal vaginal pathogen); assay: Zone of inhibition against isolated vaginal pathogen VP01
Excerpt: (§1) Antimicrobial activities against isolated vaginal pathogens (i.e. VP01, VP02, VP06, VP03, VP04 and VP05) were individually screened and analyzed to conclude and find effective probiotic compositions.
(§2) Different combination of selected probiotics strains with variation in potency were formed and underwent potential antimicrobial effect against isolated vaginal bacterial and fungal pathogens. The extents of zone of inhibition in antimicrobial activity were considered for selection of formulation. The probiotic compositions of the present invention comprise (a) Bacillus coagulans (B.C.); (b) Bacillus subtilis (B.S.); (c) citric acid (CA); (d) gallic acid (GA); (e) beta-cyclodextrin (adhesive); (f) allentoin and (g) a pH regulator (h) lanolin (i) polyethylene glycol (j) a cooling agent etc., and (k) a bioadhesive.
(§3) The zones of inhibition were also examined for each individual components at the same concentration levels as present in the respective combined formulations.

[2] = test system: VP04 (suspected bacterial vaginal pathogen); assay: Zone of inhibition against isolated vaginal pathogen VP04
Excerpt: as §1, §2, §3

[3] = test system: VP02 (suspected fungal vaginal pathogen); assay: Zone of inhibition against isolated vaginal pathogen VP02
Excerpt: as §1, §2, §3

[4] = test system: VP03, identified as Gardnerella vaginalis; assay: Zone of inhibition against isolated vaginal pathogen VP03
Excerpt: as §1, §2, §3

[5] = test system: VP05 (suspected bacterial vaginal pathogen); assay: Zone of inhibition against isolated vaginal pathogen VP05
Excerpt: as §1, §2, §3

[6] = test system: VP06, identified as Candida albicans
Excerpt: as §1, §2, §3
Vaginal swabs obtained from infected patients were grown on Potato Dextrose Agar (PDA) media, and thereafter single colonies were re-streaked on Potato Dextrose Agar plates to obtain fungal isolates, which were designated as VP06, VP02 and VP01. Potato Dextrose Agar is a common medium usually practiced to isolate and culture various fungi only, specifically applicable for yeast or fungi.

[7] = Table 1 initial studies, n-i = no zone of inhibition
[8] = Table 4, amounts as in formulation A: B.c 700, B.s 25 million cfu, CA 10, GA 100 mg, n-i = no zone
[9] = Table 5, amounts as in formulation B: B.c 550, B.s 125 million cfu, CA 20, GA 60 mg, n-i = no zone
[10] = Table 6, amounts as in formulation C: B.c 350, B.s 350 million cfu, CA 20, GA 40 mg, n-i = no zone
[11] = Table 7, amounts as in formulation D: B.c 125, B.s 550 million cfu, CA 60, GA 20 mg, n-i = no zone
[12] = Table 8, amounts as in formulation E: B.c 25, B.s 700 million cfu, CA 100, GA 10 mg, n-i = no zone

SMILES | ZONE OF INHIBITION VP01 [1, 7] [mm] | ZONE OF INHIBITION VP01 [1, 8] | ZONE OF INHIBITION VP01 [1, 9] | ZONE OF INHIBITION VP01 [1, 10] [mm] | ZONE OF INHIBITION VP01 [1, 11] [mm] | ZONE OF INHIBITION VP01 [1, 12] [mm] | ZONE OF INHIBITION VP04 [2, 7] [mm] | ZONE OF INHIBITION VP04 [2, 8] | ZONE OF INHIBITION VP04 [2, 9] | ZONE OF INHIBITION VP04 [2, 10] [mm] | ZONE OF INHIBITION VP04 [2, 11] [mm] | ZONE OF INHIBITION VP04 [2, 12] [mm] | ZONE OF INHIBITION VP02 [3, 7] [mm] | ZONE OF INHIBITION VP02 [3, 8] | ZONE OF INHIBITION VP02 [3, 9] | ZONE OF INHIBITION VP02 [3, 10] | ZONE OF INHIBITION VP02 [3, 11] | ZONE OF INHIBITION VP03 [4, 7] | ZONE OF INHIBITION VP03 [4, 9] [mm] | ZONE OF INHIBITION VP03 [4, 10] [mm] | further results
O=C(O)c1cc(O)c(O)c(O)c1 [Gallic Acid (GA), gallic acid] | 35 | 19 mm | 17 mm | 16 | 16 | 13 | 9 | 10 mm | 10 mm | 9 | 9 | 7 | 35 | 16 mm | 15 mm | 15 mm | 18 mm | n-i | 5 | 7 | ZONE OF INHIBITION VP02 ([3]; Table 8, amounts as in formulation E: B.c 25, B.s 700 million cfu, CA 100, GA 10 mg, n-i = no zone, listed as GA): n-i; ZONE OF INHIBITION VP02 ([3]; Table 8, amounts as in formulation E: B.c 25, B.s 700 million cfu, CA 100, GA 10 mg, n-i = no zone, listed as Gallic Acid): not active; ZONE OF INHIBITION VP03 [4, 8]: 8 mm; ZONE OF INHIBITION VP03 ([4]; Table 7, amounts as in formulation D: B.c 125, B.s 550 million cfu, CA 60, GA 20 mg, n-i = no zone, listed as GA): n-i; ZONE OF INHIBITION VP03 ([4]; Table 7, amounts as in formulation D: B.c 125, B.s 550 million cfu, CA 60, GA 20 mg, n-i = no zone, listed as Gallic Acid): not active; ZONE OF INHIBITION VP03 [4, 12]: n-i; ZONE OF INHIBITION VP05 [5, 7]: 11 mm; ZONE OF INHIBITION VP05 [5, 8]: 7 mm; ZONE OF INHIBITION VP05 [5, 9]: 7 mm; ZONE OF INHIBITION VP05 [5, 10]: 6 mm; ZONE OF INHIBITION VP05 [5, 11]: 6 mm; ZONE OF INHIBITION VP05 [5, 12]: 6 mm; ZONE OF INHIBITION VP06 [6, 7]: 9 mm; ZONE OF INHIBITION VP06 [6, 8]: n-i; ZONE OF INHIBITION VP06 [6, 9]: n-i; ZONE OF INHIBITION VP06 [6, 10]: n-i; ZONE OF INHIBITION VP06 [6, 11]: N-i; ZONE OF INHIBITION VP06 [6, 12]: n-i
O=C(O)CC(O)(CC(=O)O)C(=O)O [Citric Acid (CA), citric acid] | 41 | n-i | n-i | 23 | 22 | 25 | 11 | n-i | n-i | 10 | 10 | 11 | 30 | n-i | n-i | n-i | n-i | 10 mm | 7 | 8 | ZONE OF INHIBITION VP02 ([3]; Table 8, amounts as in formulation E: B.c 25, B.s 700 million cfu, CA 100, GA 10 mg, n-i = no zone, listed as CA): n-i; ZONE OF INHIBITION VP02 ([3]; Table 8, amounts as in formulation E: B.c 25, B.s 700 million cfu, CA 100, GA 10 mg, n-i = no zone, listed as Citric acid): not active; ZONE OF INHIBITION VP03 ([4]; Table 4, amounts as in formulation A: B.c 700, B.s 25 million cfu, CA 10, GA 100 mg, n-i = no zone, listed as CA): n-i; ZONE OF INHIBITION VP03 ([4]; Table 4, amounts as in formulation A: B.c 700, B.s 25 million cfu, CA 10, GA 100 mg, n-i = no zone, listed as Citric Acid): unable to cause any inhibitory effect; ZONE OF INHIBITION VP03 ([4]; Table 7, amounts as in formulation D: B.c 125, B.s 550 million cfu, CA 60, GA 20 mg, n-i = no zone, listed as CA): n-i; ZONE OF INHIBITION VP03 ([4]; Table 7, amounts as in formulation D: B.c 125, B.s 550 million cfu, CA 60, GA 20 mg, n-i = no zone, listed as Citric acid): not active; ZONE OF INHIBITION VP03 [4, 12]: 9 mm; ZONE OF INHIBITION VP05 [5, 7]: 19 mm; ZONE OF INHIBITION VP05 [5, 8]: n-i; ZONE OF INHIBITION VP05 [5, 9]: n-i; ZONE OF INHIBITION VP05 [5, 10]: 8 mm; ZONE OF INHIBITION VP05 [5, 11]: 8 mm; ZONE OF INHIBITION VP05 [5, 12]: 10 mm; ZONE OF INHIBITION VP06 [6, 7]: n-i; ZONE OF INHIBITION VP06 [6, 8]: n-i; ZONE OF INHIBITION VP06 [6, 9]: n-i; ZONE OF INHIBITION VP06 [6, 10]: n-i; ZONE OF INHIBITION VP06 [6, 11]: n-i; ZONE OF INHIBITION VP06 [6, 12]: n-i
